Results on nine compounds are retold here after PubChem BioAssay (NCI).

Test systems include CCRF-CEM leukemia; DU-145 prostate; HOP-92 NSCLC; HT29 colon; NCI-H23 lung; NCI-H460 lung; NCI/ADR-RES ovarian; SF-268 CNS; SN12C renal; SR leukemia.
Holding throughout (assay): growth of human tumour cells (NCI), 48 h

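Dose response: 5 concentrations. Exposure: 48 h. Format: 96-well plates. Endpoint: linear interpolation; highest concentration if not reached. The concentration for 50% growth inhibition is given as GI50. TGI: concentration producing complete growth inhibition.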

`CCN(CC)c1ccc2nc3c4ccccc4c(=NC(=O)c4ccccc4-c4c5ccc(N(CC)CC)cc5[o+]c5cc(N(CC)CC)ccc45)cc-3oc2c1`: the GI50 with CCRF-CEM leukemia was 2.1 µM; with DU-145 prostate it was 1.75 µM; in the test with HOP-92 NSCLC it was 3.51 µM; with HT29 colon, 2.73 µM; in the test on NCI-H23 lung it was 1.88 µM; with NCI-H460 lung, 2.29 µM. Also, the GI50 in the test on NCI/ADR-RES ovarian is 2.19 µM; in the test on SF-268 CNS, 4.69 µM; in the test on SN12C renal, 2.13 µM; with SR leukemia it was 2.74 µM. Besides, the TGI in the test with CCRF-CEM leukemia was 13.4 µM; with DU-145 prostate it was 3.46 µM; in the test on HOP-92 NSCLC it was 19.4 µM; with HT29 colon, greater than 32.2 µM; in the test on NCI-H23 lung, 6.13 µM; in the test on NCI-H460 lung it was 10.1 µM. Moreover, the TGI in the test with NCI/ADR-RES ovarian is 10.6 µM; in the test on SF-268 CNS, 19.4 µM; in the test with SN12C renal, 6.14 µM; in the test with SR leukemia it was 20.5 µM.
For `OC(c1ccccc1)c1c(-c2ccccc2)oc(-c2ccccc2)c1C(O)c1ccccc1` (stereo not drawn), the TGI in the test with CCRF-CEM leukemia was 17.1 µM; with DU-145 prostate it was 28.3 µM; with HOP-92 NSCLC, 26.5 µM; with HT29 colon, 23.1 µM; in the test with NCI-H23 lung it was 23.3 µM; with NCI-H460 lung, 28.8 µM. Further, the TGI in the test on NCI/ADR-RES ovarian worked out at 24.9 µM; in the test with SF-268 CNS it was 25.5 µM; in the test on SN12C renal, 18.4 µM; in the test with SR leukemia, 62.9 µM.
Regarding `N#CSCC(=O)c1ccc(Cl)cc1`, the GI50 in the test with CCRF-CEM leukemia was 1.5 µM; in the test with DU-145 prostate it was 2.54 µM; with HOP-92 NSCLC, 6.02 µM; with HT29 colon, 3.59 µM; in the test on NCI-H23 lung it was 4.27 µM; with NCI-H460 lung it was 3.16 µM. The GI50 in the test on NCI/ADR-RES ovarian was 3.11 µM; in the test on SF-268 CNS, 2.58 µM; in the test with SN12C renal it was 3.69 µM; in the test on SR leukemia, 0.19 µM. In addition, the TGI in the test with CCRF-CEM leukemia is 20.6 µM; in the test with DU-145 prostate it was 6.15 µM; in the test with HOP-92 NSCLC, 29 µM; in the test on HT29 colon it was 19.7 µM; in the test on NCI-H23 lung, 32.3 µM; in the test on NCI-H460 lung, 18.7 µM. Moreover, the TGI was 11 µM in the test with NCI/ADR-RES ovarian, 8.31 µM with SF-268 CNS, 19 µM in the test on SN12C renal and greater than 24.6 µM in the test with SR leukemia.
Consider `C/C(=N\Nc1cccc(Cl)n1)c1ccccn1`, for which the GI50 in the test with CCRF-CEM leukemia is 0.365 µM; in the test with DU-145 prostate, 0.692 µM; in the test with HOP-92 NSCLC, 1.32 µM; with HT29 colon it was 0.909 µM; in the test with NCI-H23 lung it was 1.28 µM; with NCI-H460 lung it was 0.482 µM. Moreover, the GI50 in the test on NCI/ADR-RES ovarian is 0.441 µM; with SF-268 CNS, 0.673 µM; with SN12C renal, 0.598 µM; with SR leukemia, 0.421 µM. Besides, the TGI was greater than 25.2 µM in the test with CCRF-CEM leukemia; greater than 100 µM with DU-145 prostate; 21.1 µM with HOP-92 NSCLC; greater than 100 µM in the test on HT29 colon; greater than 37.6 µM in the test with NCI-H23 lung; 8.33 µM in the test with NCI-H460 lung. Besides, the TGI in the test with NCI/ADR-RES ovarian was 12.8 µM; in the test with SF-268 CNS it was 15.2 µM; in the test on SN12C renal it was greater than 100 µM; with SR leukemia, greater than 44.2 µM.
`Nc1cccc2nsnc12`: the TGI was greater than 82.4 µM in the test on CCRF-CEM leukemia; greater than 100 µM in the test with DU-145 prostate; greater than 100 µM in the test on HOP-92 NSCLC; greater than 100 µM with HT29 colon; greater than 100 µM in the test with NCI-H23 lung; greater than 100 µM in the test with NCI-H460 lung. Besides, the TGI in the test on NCI/ADR-RES ovarian is greater than 100 µM; with SF-268 CNS, greater than 100 µM; in the test on SN12C renal it was greater than 100 µM; in the test on SR leukemia, greater than 63.5 µM.
On to `Brc1ccc(Br)nn1`, for which the GI50 was 0.404 µM with CCRF-CEM leukemia; 3.73 µM in the test on DU-145 prostate; 1.8 µM with HOP-92 NSCLC; 3.38 µM in the test on HT29 colon; 1.38 µM in the test with NCI-H23 lung; 3.04 µM with NCI-H460 lung. Further, the GI50 in the test with NCI/ADR-RES ovarian was 2 µM; in the test on SF-268 CNS, 1.9 µM; in the test on SN12C renal, 1.62 µM; with SR leukemia, 0.439 µM. Further, the TGI in the test on CCRF-CEM leukemia was 3.65 µM; in the test with DU-145 prostate, 13.4 µM; in the test on HOP-92 NSCLC, 3.6 µM; in the test on HT29 colon, greater than 22.3 µM; in the test on NCI-H23 lung, 4.23 µM; in the test with NCI-H460 lung it was greater than 33.8 µM. Further, the TGI with NCI/ADR-RES ovarian came to 5.78 µM; with SF-268 CNS, 5.04 µM; in the test on SN12C renal it was 3.53 µM; in the test on SR leukemia, 3.52 µM.
On to `CC(=O)OCC(=O)C1(O)C(C)CC2C3C=C(C)C4=Cc5c(cnn5-c5ccccc5)CC4(C)C3C(O)CC21C` (stereo not drawn), for which the TGI was greater than 100 µM in the test on CCRF-CEM leukemia; 5.74 µM in the test with DU-145 prostate; 7.39 µM in the test with HOP-92 NSCLC; 2.42 µM in the test on HT29 colon; 5.78 µM in the test on NCI-H23 lung; 3.24 µM with NCI-H460 lung. In addition, the TGI with NCI/ADR-RES ovarian was 8.73 µM; with SF-268 CNS it was 11.4 µM; with SN12C renal it was 9.86 µM; with SR leukemia it was greater than 27.2 µM. The GI50 in the test on DU-145 prostate was 1.93 µM; in the test with HOP-92 NSCLC, 0.0261 µM; in the test with HT29 colon, 0.971 µM; in the test on NCI-H23 lung it was 2.2 µM; in the test with NCI-H460 lung, 1.43 µM; in the test on NCI/ADR-RES ovarian it was 1.94 µM. The GI50 in the test on SF-268 CNS is 1.64 µM; in the test on SR leukemia, 1.63 µM.
Regarding `COc1cc(C2C(C#N)=C(N)Oc3cc4c(cc32)OCO4)cc2c1OCO2` (stereo not drawn), the GI50 with CCRF-CEM leukemia is 0.318 µM; in the test with DU-145 prostate it was 0.362 µM; in the test on HOP-92 NSCLC, 0.407 µM; with HT29 colon, 0.324 µM; in the test with NCI-H23 lung, 0.313 µM; in the test with NCI-H460 lung, 0.34 µM. In addition, the GI50 in the test with NCI/ADR-RES ovarian is 0.103 µM; in the test with SF-268 CNS, 0.963 µM; with SN12C renal, 0.599 µM; in the test with SR leukemia it was 0.0696 µM. Moreover, the TGI in the test on CCRF-CEM leukemia was greater than 100 µM; in the test with DU-145 prostate, greater than 100 µM; with HOP-92 NSCLC, 46.8 µM; in the test on HT29 colon it was greater than 59.7 µM; in the test with NCI-H23 lung it was greater than 100 µM; with NCI-H460 lung, 26.2 µM. The TGI in the test with NCI/ADR-RES ovarian was 0.553 µM; in the test with SF-268 CNS, 97.3 µM; in the test on SN12C renal, greater than 100 µM; in the test with SR leukemia, greater than 100 µM.
For the compound `C[C@@H](Oc1cc(-c2cnn(C3CC4(CCCNC4)C3)c2)cnc1N)c1c(Cl)ccc(F)c1Cl` (stereo partly drawn), the GI50 with CCRF-CEM leukemia is 0.936 µM; in the test with DU-145 prostate it was 1.88 µM; in the test on HOP-92 NSCLC, 0.807 µM; with HT29 colon, 0.607 µM; in the test with NCI-H23 lung, 1.14 µM; in the test on NCI-H460 lung it was 0.826 µM. Further, the GI50 in the test with NCI/ADR-RES ovarian is 2.25 µM; in the test on SF-268 CNS it was 1.81 µM; in the test with SN12C renal it was 1.5 µM; in the test on SR leukemia, 0.0827 µM. Further, the TGI was determined as 4.77 µM in the test with CCRF-CEM leukemia; 6.92 µM with DU-145 prostate; 3.42 µM in the test on HOP-92 NSCLC; 2.3 µM with HT29 colon; 3.41 µM with NCI-H23 lung; 2.53 µM with NCI-H460 lung. Further, the TGI worked out at 5.59 µM in the test on NCI/ADR-RES ovarian, 6.02 µM with SF-268 CNS, 8.97 µM with SN12C renal and 1.41 µM in the test on SR leukemia.
